# Results from the supplement of paper PMC10307832.
# What was measured:
# Test in all cases: relative viability (nuclei count vs DMSO), 5 days (fraction); higher = more cells survive
# 201T = system: 201T
# How it was run: (§1)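 For relative viability, nuclei counts in treated wells were divided by those in vehicle wells. Lung cancer cell lines had been pin-tool dosed in 1536-well plates the day after seeding and cultured for 5 days, then fixed and stained in one step (final 0.05% Triton X-100, 1% formaldehyde, 1 ug/ml Hoechst) and imaged at 4×. Doses were one drug alone or a fixed anchor-drug dose plus five library-drug doses (not always all listed) in √10 steps, and values are duplicate-plate medians.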
# BEN = system: BEN
# How it was run: as §1
# CAL-12T = system: CAL-12T
# How it was run: as §1
# HCC-44 = system: HCC-44
# How it was run: as §1
# HCC-827 = system: HCC-827
# How it was run: as §1
# HOP-62 = system: HOP-62
# How it was run: as §1
# LCLC-103H = system: LCLC-103H
# How it was run: as §1
# LCLC-97TM1 = system: LCLC-97TM1
# How it was run: as §1
# LXF-289 = system: LXF-289
# How it was run: as §1
# NCI-H1355 = system: NCI-H1355
# How it was run: as §1
# NCI-H1395 = system: NCI-H1395
# How it was run: as §1
# NCI-H1437 = system: NCI-H1437
# How it was run: as §1
# NCI-H1793 = system: NCI-H1793
# How it was run: as §1
# NCI-H2023 = system: NCI-H2023
# How it was run: as §1
# NCI-H2087 = system: NCI-H2087
# How it was run: as §1
# NCI-H2228 = system: NCI-H2228
# How it was run: as §1
# NCI-H2405 = system: NCI-H2405
# How it was run: as §1
# NCI-H3122 = system: NCI-H3122
# How it was run: as §1
# NCI-H322M = system: NCI-H322M
# How it was run: as §1
# NCI-H647 = system: NCI-H647
# How it was run: as §1
# NCI-H727 = system: NCI-H727
# How it was run: as §1
# RERF-LC-KJ = system: RERF-LC-KJ
# How it was run: as §1
# SK-LU-1 = system: SK-LU-1
# How it was run: as §1
smiles,measurement,setting,value
COc1cc(N2CCC(C(N)=O)CC2)ccc1Nc1nc(N)c(Cl)c(Nc2ccccc2S(=O)(=O)C(C)C)n1 [HG-5-88-01] + C[C@]1(O)C[C@@H](c2nc(-c3ccc4ccc(-c5ccccc5)nc4c3)c3c(N)nccn32)C1 [Linsitinib] (partner 1 µM),relative viability,201T; first compound 0.04 µM,1.02
same,relative viability,201T; first compound 0.1265 µM,1.04
same,relative viability,201T; first compound 0.4 µM,1.04
same,relative viability,201T; first compound 1.265 µM,0.945
same,relative viability,201T; first compound 4 µM,1.19
same,relative viability,BEN; first compound 0.04 µM,0.817
same,relative viability,BEN; first compound 0.1265 µM,0.968
same,relative viability,BEN; first compound 0.4 µM,0.899
same,relative viability,BEN; first compound 1.265 µM,0.767
same,relative viability,BEN; first compound 4 µM,1.17
same,relative viability,CAL-12T; first compound 0.04 µM,0.773
same,relative viability,CAL-12T; first compound 0.1265 µM,0.592
same,relative viability,CAL-12T; first compound 0.4 µM,0.78
same,relative viability,CAL-12T; first compound 1.265 µM,0.561
same,relative viability,CAL-12T; first compound 4 µM,0.726
same,relative viability,HCC-44; first compound 0.04 µM,0.806
same,relative viability,HCC-44; first compound 0.1265 µM,0.672
same,relative viability,HCC-44; first compound 0.4 µM,0.56
same,relative viability,HCC-44; first compound 1.265 µM,0.648
same,relative viability,HCC-44; first compound 4 µM,0.751
same,relative viability,HCC-827; first compound 0.04 µM,0.953
same,relative viability,HCC-827; first compound 0.1265 µM,1.04
same,relative viability,HCC-827; first compound 0.4 µM,0.934
same,relative viability,HCC-827; first compound 1.265 µM,0.955
same,relative viability,HCC-827; first compound 4 µM,0.69
same,relative viability,HOP-62; first compound 0.04 µM,0.978
same,relative viability,HOP-62; first compound 0.1265 µM,1.04
same,relative viability,HOP-62; first compound 0.4 µM,0.821
same,relative viability,HOP-62; first compound 1.265 µM,0.938
same,relative viability,HOP-62; first compound 4 µM,1.23
same,relative viability,LCLC-103H; first compound 0.04 µM,0.986
same,relative viability,LCLC-103H; first compound 0.1265 µM,1.18
same,relative viability,LCLC-103H; first compound 0.4 µM,1.03
same,relative viability,LCLC-103H; first compound 1.265 µM,1.03
same,relative viability,LCLC-103H; first compound 4 µM,1.21
same,relative viability,LCLC-97TM1; first compound 0.04 µM,0.183
same,relative viability,LCLC-97TM1; first compound 0.1265 µM,0.201
same,relative viability,LCLC-97TM1; first compound 0.4 µM,0.18
same,relative viability,LCLC-97TM1; first compound 1.265 µM,0.152
same,relative viability,LCLC-97TM1; first compound 4 µM,0.158
same,relative viability,LXF-289; first compound 0.04 µM,0.94
same,relative viability,LXF-289; first compound 0.1265 µM,1
same,relative viability,LXF-289; first compound 0.4 µM,0.961
same,relative viability,LXF-289; first compound 1.265 µM,0.973
same,relative viability,LXF-289; first compound 4 µM,1.04
same,relative viability,NCI-H1355; first compound 0.04 µM,0.863
same,relative viability,NCI-H1355; first compound 0.1265 µM,0.85
same,relative viability,NCI-H1355; first compound 0.4 µM,0.864
same,relative viability,NCI-H1355; first compound 1.265 µM,0.705
same,relative viability,NCI-H1355; first compound 4 µM,0.767
same,relative viability,NCI-H1395; first compound 0.04 µM,1.13
same,relative viability,NCI-H1395; first compound 0.1265 µM,1.02
same,relative viability,NCI-H1395; first compound 0.4 µM,1.07
same,relative viability,NCI-H1395; first compound 1.265 µM,0.856
same,relative viability,NCI-H1395; first compound 4 µM,1.09
same,relative viability,NCI-H1437; first compound 0.04 µM,1.04
same,relative viability,NCI-H1437; first compound 0.1265 µM,1.04
same,relative viability,NCI-H1437; first compound 0.4 µM,0.926
same,relative viability,NCI-H1437; first compound 1.265 µM,0.996
same,relative viability,NCI-H1437; first compound 4 µM,1.18
same,relative viability,NCI-H1793; first compound 0.1265 µM,1.05
same,relative viability,NCI-H1793; first compound 0.4 µM,0.856
same,relative viability,NCI-H1793; first compound 1.265 µM,0.809
same,relative viability,NCI-H1793; first compound 4 µM,1.18
same,relative viability,NCI-H2023; first compound 0.04 µM,0.695
same,relative viability,NCI-H2023; first compound 0.1265 µM,0.683
same,relative viability,NCI-H2023; first compound 0.4 µM,0.619
same,relative viability,NCI-H2023; first compound 1.265 µM,0.539
same,relative viability,NCI-H2023; first compound 4 µM,0.762
same,relative viability,NCI-H2087; first compound 0.04 µM,0.85
same,relative viability,NCI-H2087; first compound 0.1265 µM,1.07
same,relative viability,NCI-H2087; first compound 0.4 µM,0.912
same,relative viability,NCI-H2087; first compound 1.265 µM,0.964
same,relative viability,NCI-H2087; first compound 4 µM,0.888
same,relative viability,NCI-H2228; first compound 0.04 µM,0.234
same,relative viability,NCI-H2228; first compound 0.1265 µM,0.382
same,relative viability,NCI-H2228; first compound 0.4 µM,0.389
same,relative viability,NCI-H2228; first compound 1.265 µM,0.41
same,relative viability,NCI-H2228; first compound 4 µM,0.315
same,relative viability,NCI-H2405; first compound 0.04 µM,1.06
same,relative viability,NCI-H2405; first compound 0.1265 µM,1.01
same,relative viability,NCI-H2405; first compound 0.4 µM,0.807
same,relative viability,NCI-H2405; first compound 1.265 µM,0.714
same,relative viability,NCI-H2405; first compound 4 µM,1.02
same,relative viability,NCI-H3122; first compound 0.04 µM,0.914
same,relative viability,NCI-H3122; first compound 0.1265 µM,0.379
same,relative viability,NCI-H3122; first compound 0.4 µM,0.197
same,relative viability,NCI-H3122; first compound 1.265 µM,0.2
same,relative viability,NCI-H3122; first compound 4 µM,0.226
same,relative viability,NCI-H322M; first compound 0.04 µM,0.892
same,relative viability,NCI-H322M; first compound 0.1265 µM,0.922
same,relative viability,NCI-H322M; first compound 0.4 µM,1.01
same,relative viability,NCI-H322M; first compound 1.265 µM,0.657
same,relative viability,NCI-H322M; first compound 4 µM,0.858
same,relative viability,NCI-H647; first compound 0.04 µM,1.21
same,relative viability,NCI-H647; first compound 0.1265 µM,1.38
same,relative viability,NCI-H647; first compound 1.265 µM,1.08
same,relative viability,NCI-H647; first compound 4 µM,1.12
same,relative viability,NCI-H727; first compound 0.04 µM,0.337
same,relative viability,NCI-H727; first compound 0.1265 µM,0.336
same,relative viability,NCI-H727; first compound 0.4 µM,0.179
same,relative viability,NCI-H727; first compound 1.265 µM,0.221
same,relative viability,NCI-H727; first compound 4 µM,0.324
same,relative viability,RERF-LC-KJ; first compound 0.04 µM,0.823
same,relative viability,RERF-LC-KJ; first compound 0.1265 µM,0.897
same,relative viability,RERF-LC-KJ; first compound 0.4 µM,0.849
same,relative viability,RERF-LC-KJ; first compound 1.265 µM,0.864
same,relative viability,RERF-LC-KJ; first compound 4 µM,0.539
same,relative viability,SK-LU-1; first compound 0.04 µM,1.02
same,relative viability,SK-LU-1; first compound 0.1265 µM,1
same,relative viability,SK-LU-1; first compound 0.4 µM,1.09
same,relative viability,SK-LU-1; first compound 1.265 µM,1.21
same,relative viability,SK-LU-1; first compound 4 µM,0.996
